These results are taken from publication PMC10804494 (BMC Complementary Medicine and Therapies, 2024).

Data set [1] can be described thus: in vitro. To be noted: dog.
Data set [2] relates to influenza A/H5N1 virus. Put plainly: microbe, parasite or virus in culture. It is filed as cell-based. The conditions noted are these: H5N1, MDCK, read-out: Viral inhibition percentage, Viral Replication.
Data set [3] relates to MDCK cells. The conditions noted are these: dog.
Data set [4] deals with influenza A/H5N1 virus. The data set can be described thus: microbe, parasite or virus in culture. Type of data set: cell-based. The conditions noted are these: H5N1, MDCK, read-out: Viral inhibition percentage, Virucidal.
For data set [5], the system named is influenza A/H1N1. Put plainly: Plaque reduction assay, A/H1N1. Type of data set: cell-based, influenza A/H1N1 virus. The conditions noted are these: A/H1N1, MDCK, low non-toxic concentrations, Fig. 4. On the technique in general: Plaques are areas of infected cells; plaque reduction assays count them against a control.
Data set [6] deals with influenza A/H5N1. It is filed as cell-based, influenza A/H5N1 virus.
For data set [7] the following is noted: cited from earlier work.
For data set [8], the system named is influenza A/H5N1 virus. The data set can be described thus: microbe, parasite or virus in culture. Type of data set: cell-based.
In data set [9] the test system is highly pathogenic avian influenza A/chicken/Egypt/N12640A/2016 (H5N1). Put plainly: microbe, parasite or virus in culture. Type of data set: cell-based, influenza A/H5N1 virus.
For data set [10], the system named is IAV (A/Puerto Rico/8/1934(H1N1)). The conditions noted are these: A/Puerto Rico/8/1934(H1N1) in mice; cited from earlier work.
Data set [11] has as its system seasonal influenza A/Egypt/NRC098/2019(H1N1). Put plainly: microbe, parasite or virus in culture. Type of data set: cell-based. The conditions noted are these: H1N1, MDCK, 72 h.
[12] abbreviates: Influenza A virus, H5N1, MDCK, read-out: Viral inhibition percentage, Viral Adsorption.
The mark [13] stands for this setting: Influenza A virus, H5N1, MDCK, 72 h.

The structures appear in SMILES notation. Converted amounts (≈) assume the structure as drawn. Structures can show the parent of a compound that is named as a salt. Where two headings read alike, the source gives them in different places.

`C[n+]1cccc(C(=O)[O-])c1` [Trigonelline HCl] yielded a CC50 in data set [1] of more than 10000 µg/mL.
On the same count and under the same terms, the result for `C=C[C@H]1C[N@@]2CC[C@H]1C[C@@H]2[C@@H](O)c1ccnc2ccc(OC)cc12` [Quinidine Sulphate, Quinidine sulphate] reads more than 10000 µg/mL.
The term inhibition denotes the percentage by which the read-out fell short of the control. Take `COc1cc2c(c(OC)c1OC)-c1ccc(OC)c(=O)cc1[C@@H](NC(C)=O)CC2` [Colchicine, (S)-N-(1,2,3,10-tetramethoxy-9-oxo-5,6,7,9-tetrahydrobenzo[a]heptalen-7-yl)acetamide]: the inhibition at 1 µg/mL in [2] turned out to be 85.7%; in [4] it was 25%; in data set [8] (setting [12]), 55%. The inhibition at 10 µg/mL stood at 87% in data set [2], 38% in data set [4] and 64.1% in [8] (setting [12]). Also, the figures for the inhibition at 100 µg/mL in [2], in data set [4] and in data set [8] (setting [12]) were 91.1%, 47.1% and 73%, respectively. The results for the CC50 in data set [3] and in data set [1] were 3370 µg/mL (≈ 8440 µM) and 2380 µg/mL (≈ 5960 µM), respectively. Further, the “reduction of viral titers (in words)” value in [5] and in data set [6] was “high capacity to reduce viral titers” in each case. Besides, the toxic range in data set [7] was 0.6 mg. Also, the “Viral inhibition percentage, Viral Adsorption” value in data set [8] is on record as 73.05%.
For `COc1ccc(Cc2nccc3cc(OC)c(OC)cc23)cc1OC` [Papaverine HCl], in data set [9], the “anti-influenza activity against A/H5N1 virus (in words)” value was “poor anti-influenza activity”. In addition, the CC50 in [1] is 274 µg/mL.
As usually defined, the IC50 is the concentration that gives 50% inhibition. `CN1C2CC(OC(=O)C(CO)c3ccccc3)CC1C1OC12` (single isomer, unassigned; (-)) [(-)Scopolamine HCl] had a concentration for half-maximal inhibition (IC50) in [9] (setting [13]) of 360 µg/mL.
As to `C=C[C@H]1C[N@@]2CC[C@H]1C[C@H]2[C@H](O)c1ccnc2ccc(OC)cc12` [Quinine sulphate], the “anti-influenza activity against A/H5N1 virus (in words)” value in data set [9] was “no anti-influenza activity”. Besides, in data set [10], the “antiviral effect in mice (in words)” value was “exert an antiviral effect”. Further, the CC50 in data set [1] is more than 10000 µg/mL.
Turning to `CC(=O)N[C@H]1[C@H]([C@H](O)[C@H](O)CO)OC(C(=O)O)=C[C@@H]1N=C(N)N` [Zanamivir], the results for the half-maximal inhibitory concentration (IC50) in data set [9] (setting [13]) and in data set [11] were 0.358 µg/mL (≈ 1.08 µM) and 0.265 µg/mL (≈ 0.797 µM), respectively. This compound also gave a CC50 in data set [1] of more than 10000 µg/mL.
`Cn1c(=O)c2c(ncn2C)n(C)c1=O` [Caffeine]: the IC50 in data set [9] (setting [13]) is 85.7 µg/mL (≈ 441 µM). In addition, the CC50 in [1] was more than 10000 µg/mL.
For `CN1C2CCC1CC(OC(=O)C(CO)c1ccccc1)C2` (stereo not shown) [Atropine sulphate], the inhibition at 1 µg/mL in data set [2] was 32.8%; in [4], 90.5%; in data set [8] (setting [12]), 36.2%. For the same compound, the inhibition at 10 µg/mL in data set [2] is 41.2%; in data set [4], 97.6%; in [8] (setting [12]), 45.2%. The inhibition at 100 µg/mL in [2] was 52.9%; in data set [4], 100%; in data set [8] (setting [12]), 52.4%. Further, the IC50 was found to be 2.26 µg/mL in data set [9] (setting [13]) and 0.204 µg/mL in data set [11]. Further, the “reduction of viral titers (in words)” value in data set [5] and in data set [6] was “high capacity to reduce viral titers” throughout.
For the compound `CN[C@@H](C)[C@H](O)c1ccccc1` [Ephedrine HCl], the IC50 in [9] and in data set [9] (setting [13]) was 186 µg/mL each time. This compound had a CC50 in [1] of more than 10000 µg/mL.
In the case of `CC[C@@H]1C(=O)OC[C@@H]1Cc1cncn1C` [Pilocarpine HCl], the figures for the inhibition at 10 µg/mL in data set [2], in [4] and in data set [8] (setting [12]) were 35.3%, 94.9% and 37.8%, respectively. In addition, the inhibition at 100 µg/mL in data set [2] turned out to be 46.9%; in data set [4], 99.1%; in [8] (setting [12]), 44.6%. The results for the inhibition at 1000 µg/mL in data set [2], in [4] and in data set [8] (setting [12]) were 53.1%, 100% and 56.9%, respectively. Also, the IC50 in data set [9] (setting [13]) was determined as 0.21 µg/mL; in data set [11] it was 0.637 µg/mL. The “reduction of viral titers (in words)” value in data set [5] and in [6] was “high capacity to reduce viral titers” each time. Moreover, in data set [1], the CC50 is 3320 µg/mL.
